Like-named read-outs stand apart in the source and are kept apart here.
Legend:
[1] = Cytotoxicity assay on splenocytes, propidium iodide flow cytometry; format: cell-based, mice; details: BALB/c, mouse, murine splenocytes
Protocol: The cytotoxicity of the isolated compounds was evaluated using splenocytes obtained from BALB/c mice. Primary cell cultures (1.5 × 10^5) were incubated with different concentrations of the isolated phytochemicals (5–200 μg/mL) in RPMI medium supplemented with 10% fetal bovine serum. After 48 h of incubation at 37 °C (5% CO2), the cells were harvested, washed once with PBS and stained with 2.5 μg/mL propidium iodide (PI) for 5 min at room temperature. Subsequently, cell death was assessed via flow cytometry using a BD FACSaria II cytometer. Cells incubated with DMSO were used as 100% viability control, and the death percentage was calculated according to the following formula: {1 − [(% PI^− cells treated)/(% PI^− cells of the viability control)] × 100}.

[2] = tested on: TNF secretion, Raw-Blue macrophages; test: TNF in RAW-Blue supernatants, capture ELISA; format: cell-based, murine; details: 24 h
Protocol: (§1) The production of the cytokines IL-10 and TNF was also determined in cell supernatant from these samples with an ELISA assay (R&D System, Minneapolis, MN, USA; BD Pharmingen, Franklin Lakes, NJ, USA).

[3] = tested on: IL-10 production, Raw-Blue macrophages; test: IL-10 in RAW-Blue supernatants, ELISA; format: cell-based, murine; details: increasing concentrations (1, 10 µg/mL), 24 h, dose-dependent
Protocol: as §1

[4] = tested on: T. cruzi epimastigotes (RA strain); test: In vitro activity against epimastigotes, [3H]-thymidine uptake assay; format: cell-based; details: Trypanosoma cruzi
[5] = tested on: type-I Interferon (IFN) pathway, RAW-Lucia ISG cells; test: Type-I interferon reporter assay in RAW-Lucia ISG cells, Lucia luciferase; format: cell-based, murine; details: 24 h
Protocol: The effect of compound 1 on a type-I Interferon (IFN) reporter cell line stimulated with LPS was studied. RAW-Lucia cells express the Lucia luciferase enzyme under the control of the ISG54 promoter that responds to an IFN-stimulated response element, which is activated by several Interferon Regulatory Factors (IRFs).
RAW-Lucia ISG cells I (InvivoGen, San Diego, CA, USA) (100 μL) were cultured (100,000 cells/well) with DMEM at 37 °C in a 5% CO2 atmosphere to be stimulated with LPS (0.5 µg/mL) or a combination of LPS and compound 1 (1 and 10 µg/mL). Unstimulated cells were included as controls. After a 24 h incubation, the supernatants of each well were collected in order to quantify the luciferase activity by measuring the luminescence generated after the addition of the QUANTI-Luc reagent (InvivoGen) according to the manufacturer’s instructions with a PerkinElmer Victor3 luminometer.

[6] = tested on: NF-kB, RAW-Blue cells; test: NF-kB reporter assay in RAW-Blue cells, SEAP activity; format: cell-based, murine; details: 24 h
Protocol: The effect of compound 1 was evaluated on a cell line that secretes alkaline phosphatase as a surrogate marker for the secretion of NF-kB. RAW-Blue cells (InvivoGen) (100 μL) were seeded in a 96-well plate (100,000 cells/well) with DMEM at 37 °C in a 5% CO2 atmosphere. […] Untreated cells were included as controls. The supernatants were collected and absorbance at 620–655 nm was measured after the addition of the Quanti-Blue reagent (InvivoGen) in a microplate reader. Levels of NF-kB were calculated following the manufacturer’s instructions.

[7] = tested on: T. cruzi (RA strain) infection in BALB/c mice; test: In vivo trypanocidal activity in murine model of T. cruzi infection; set-up: species or system Trypanosoma cruzi; details: for Hazard ratio (logrank) vs vehicle: Kaplan–Meier survival; for decrease in the area under the parasitemia curve (AUC): fold vs untreated control group
[8] = tested on: T. cruzi epimastigotes; test: Transmission electron microscopy of treated epimastigotes; format: cell-based, Trypanosoma cruzi; details: 20 µM
Protocol: All procedures were carried out according to Brengio et al.. Epimastigotes from T. cruzi were treated with 20 µM of compound 1 for either 48 h or 72 h. Then, the parasites were centrifuged at 1000× g for 10 min and fixed with 2.5% glutaraldehyde. Subsequently, they were washed three times with PBS and postfixed overnight with 2% OsO4. After washing twice with PBS, cells were stained with 1% uranyl acetate. The samples were dehydrated sequentially in ethanol and acetone and embedded in Epon 812. Ultrathin slices of 60 nm were obtained using an automatic Leica-ultracut R ultramicrotome and observed with a Microscope Zeiss EM900 (Zeiss, Oberkochen, Germany).

[9] = tested on: nitric oxide production, Raw-Blue cells; test: Nitric oxide production, Griess reaction on RAW-Blue supernatants; format: cell-based, murine
Protocol: The Griess reaction assay was performed to determine the effect of compound 1 on Nitric Oxide production. The same supernatant samples obtained in Section 2.8.2 (50 µL) were combined with 100 µL of Griess reagent. After incubation at room temperature for 30 min, absorbance was measured at 540 nm. A calibration curve was constructed with 1–250 µM of […] to extrapolate the nitrite concentration in the tested samples.

[10] = tested on: iNOS expression and NO production; set-up: method as in doi:10.7324/JAPS.2023.95766; details: cited from earlier work
[11] = tested on: T. cruzi amastigotes (Tulahuen strain expressing β-galactosidase); test: In vitro activity against amastigotes in infected Vero cells, β-galactosidase/CPRG readout; format: cell-based; details: Trypanosoma cruzi, 120 h, intracellular amastigotes in Vero cells, 5 days
Protocol: Cultures of Trypanosoma cruzi epimastigotes (RA strain) were maintained through weekly passages in LIT medium supplemented with 10% fetal bovine serum at 28 °C. Trypanosoma cruzi bloodstream trypomastigotes (RA strain) were obtained from infected CF1 mice by cardiac puncture 15 days after infection at the peak of parasitemia while transfected trypomastigotes expressing β-galactosidase (Clone C4, e Tulahuen strain) were obtained from infected Vero cells.
The activity of compounds 1–3 on the intracellular forms of T. cruzi was evaluated. Vero cells (5 × 10^3/well) were infected with culture-derived trypomastigotes of T. cruzi from the Tulahuen strain expressing β-galactosidase (MOI: 10). After an O.N. incubation at 37 °C, and 5% CO2, non-infecting parasites were washed out and infected cells were incubated with increasing concentrations of the compounds (0.001–50 µg/mL). Cells treated with DMSO or benznidazole and non-infected cells were included as controls. After 5 days, cells were lysed with 1% Nonidet P-40, and chlorophenol red-β-D-galactopyranoside (CPRG) (100 μM) was added as a substrate for the β-galactosidase enzyme. The plate was then incubated for 4 h at 37 °C and β-galactosidase activity was determined by measuring the absorbance at 570 nm. The percentage of inhibition for each concentration of compounds was calculated as: 100 − {[(absorbance of treated infected cells)/(absorbance of untreated infected cells)] × 100}.

[12] = primary splenocytes, read-out: CC50 µg/mL ± SEM
[13] = primary splenocytes, read-out: CC50
[14] = T. cruzi epimastigotes, 72 h incubation, read-out: IC50 ± SEM Epimastigotes
[15] = T. cruzi epimastigotes, 72 h incubation, value in brackets, read-out: IC50 Epimastigotes (converted)
[16] = LPS 0.5 µg/mL, 1 or 10 µg/mL compound
[17] = infected BALB/c mice, 1 mg/kg/day i.p. each for 5 days
[18] = read-out: IC50 ± SEM Amastigotes
[19] = value in brackets, read-out: IC50 Amastigotes (converted)

SMILES | CC50 at 48 h [1, 12] | CC50 at 48 h [1, 13] | IC50 [4, 14] | IC50 [4, 15] | Hazard ratio (logrank) vs vehicle ([7]; 1 mg/kg/day i.p. for 5 days) | decrease in the area under the parasitemia curve (AUC) [7, 17] | IC50 [11, 18] | IC50 [11, 19] | further results
C=C1C(=O)[C@@]23CC[C@@H]4[C@](C)(C(=O)O)CCC[C@@]4(C)[C@]2(O)[C@@H](O)C[C@@H]1C3 (single isomer, unassigned; ent-9) [Compound 1, ent-9α,11α-dihydroxy-15-oxo-kaur-16-en-19-oic acid] | 112 ± 3.4 µg/mL | 322 µM | 3.7 ± 0.5 µg/mL | 10.6 µM | 0.9 | two-fold | 2.1 ± 0.3 µg/mL | 6.1 µM | TNF levels after LPS stimulation ([2]; LPS 0.5 µg/mL, 1 and 10 µg/mL compound): significantly reduced; basal levels of TNF ([2]; without LPS, increasing concentrations (1, 10 µg/mL)): significant decrease in the basal levels of TNF; IL-10 production and secretion [3]: increase in the production and secretion of IL-10; Lucia luciferase activity after LPS stimulation [5, 16]: reduction in enzymatic activity; basal Lucia luciferase activity ([5]; unstimulated control cells, 1 or 10 µg/mL): did not affect the basal levels of Lucia luciferase activity; NF-kB activation by TLR agonists (SEAP activity) ([6]; CpG 100 µg/mL, Poly(I:C) 100 µg/mL or LPS 0.5 µg/mL, compound 2.5 µg/mL): significantly inhibit NF-kB activation; LPS-mediated activation of NF-kB (SEAP activity) [6, 16]: dose-dependent inhibition; parasitemia levels ([7]; infected BALB/c mice, 1 mg/kg/day i.p. for 5 days, vs vehicle): significant decrease in parasitemia levels; ultrastructural effect on epimastigotes (TEM) ([8]; 48 h): formation of abnormal cytosolic membranous structures; ultrastructural effect on epimastigotes (TEM) ([8]; 72 h): Abnormal cytosolic membranous structures; nitric oxide production (nitrite) with TLR ligands ([9]; CpG 100 µg/mL, Poly(I:C) 100 µg/mL or LPS 0.5 µg/mL, compound 2.5 µg/mL, 24 h): significant decrease in nitric oxide production; nitric oxide production (nitrite levels) after LPS ([9]; LPS-stimulated Raw-Blue macrophages, dose-dependent): significantly inhibited nitric oxide production; iNOS expression and NO production in vitro [10]: inhibit iNOS expression and NO production
C=C1C(=O)[C@@]23CC[C@H]4[C@@](C)(CCC[C@@]4(C)C(=O)O)[C@@H]2[C@@H](O)C[C@@H]1C3 (single isomer, unassigned; ent-11) [Compound 3, ent-11α-hydroxy-15-oxo-kaur-16-en-19-oic acid] | – | – | 1.6 ± 0.6 µg/mL | 4.8 µM | – | – | 20.1 ± 8.2 µg/mL | 60.6 µM | CC50 at 48 h ([1]; read-out: CC50 µg/mL ± SEM): 4.9 ± 1.6 µg/mL; CC50 at 48 h ([1]; read-out: CC50): 14.8 µM
O=C(Cn1ccnc1[N+](=O)[O-])NCc1ccccc1 [Benznidazole, benznidazole, reference compound] | 45.3 ± 1.8 µg/mL | 81.5 µM | – | – | 1.1 | 1.6 | 0.5 ± 0.04 µg/mL | 1.9 µM | IC50 ([4]; 72 h, read-out: IC50 Epimastigotes): 4.2 µM; IC50 ([4]; 72 h, read-out: IC50 ± SEM Epimastigotes): 1.08 ± 0.2 µg/mL; mice remaining alive at the end of the acute infection phase ([7]; 1 mg/kg/day i.p. each for 5 days): none
C[C@H]1C(=O)[C@@]23CC[C@H]4[C@@](C)(CCC[C@@]4(C)C(=O)O)[C@@H]2[C@@H](O)C[C@@H]1C3 [Compound 2, (16R)-ent-11α-hydroxy-15-oxokauran-19-oic acid] | 7.8 ± 0.2 µg/mL | 23.3 µM | 5.2 ± 0.3 µg/mL | 15.9 µM | – | – | 6.5 ± 0.2 µg/mL | 19.5 µM | –

— paper PMC10975076, “Trypanocidal and Anti-Inflammatory Effects of Three ent-Kaurane Diterpenoids from Gymnocoronis spilanthoides var. subcordata (Asteraceae)” (Pharmaceutics, 2024)
